{"source": "patent US20160024051A1", "about": "“SALTS AND SOLID FORMS OF ISOQUINOLINONES AND COMPOSITION COMPRISING AND METHODS OF USING THE SAME” (INFINITY PHARMACEUTICALS, INC., priority 2013, published 2016)", "key": {"[1]": {"assay": "PK evaluation in Cyno monkey", "assay_type": "in vivo", "procedure": "(§1) For example, Compound 1 bis-hydrogen sulfate monohydrate was evaluated in CD-1 mouse, Wistar rat, Cyno monkey, and Beagle dog. Cross species allometric scaling of CL (drug clearance) and Vss (volume at steady state) predicts low CL, high Vss and long T112 for Compound 1 in humans."}, "[2]": {"assay": "PK evaluation in Wistar rat", "assay_type": "in vivo", "procedure": "as §1"}, "[3]": {"assay": "PK evaluation in CD-1 mouse", "assay_type": "in vivo", "procedure": "as §1"}, "[4]": {"assay": "PK evaluation in Beagle dog", "assay_type": "in vivo", "procedure": "as §1"}, "[5]": {"assay": "Storage at 25° C./93% RH for 1 week, re-analysis by XRPD/HPLC", "assay_type": "physicochemical", "details": "for stability on storage at 25° C./93% RH: 1 week"}, "[6]": {"assay": "Storage at 40° C./75% RH (elevated humidity) for 1 week, re-analysis by XRPD/HPLC"}, "[7]": {"assay": "Polymorphism study: maturation (temperature cycling RT to 50° C.) in solvents, XRPD", "assay_type": "physicochemical", "details": "three days", "procedure": "One of 21 solvents was added to each vial in a number of aliquots (up to 30 volumes), with shaking. All the samples were then placed under maturation between RT to 50° C. (4 hours at each temperature) for 3 days. After maturation the samples were analysed by XRPD. Clear solutions were cooled to −20° C. (freezer). If no precipitation occurred samples were evaporated at RT.\nSamples were placed under maturation between RT-50° C. (4 hours cycle) for 3 days. After maturation the samples were analyzed by XRPD. Clear solutions were then cooled to −20° C. (freezer). If no precipitation occurred, samples were evaporated at RT.\nThe corresponding solvents and solvent mixtures were added in portions of (a total of) 5, 10, 20, and 30 volumes at 50° C., with shaking, aiming for clear solutions. After each addition, the vials were allowed to shake for 20 minutes, after which observations were made. Solutions were allowed to evaporate, whereas slurries were set for 8 hour temperature cycling maturation, between RT and 50° C., for 5 days.\nThe oils obtained by solvent evaporation were used for the maturation screen. Anhydrous solvents (5 volumes; 100 μL) were used in order to minimise the amount of water present. Any solutions were allowed to slowly evaporate, whereas slurries were set for 8 hour temperature cycling maturation, between RT and 50° C. […] These were matured for a further 24 hours before performing XRPD analysis.\nThe selected solvents and solvent mixtures (5 to 20 volumes) were added with stirring. Any solutions were allowed to slowly evaporate, whereas slurries were set for 8 hour temperature cycling maturation, between RT and 50° C., for 2 days.\nCrystals were ground in order to analyse them by XRPD. Suspensions were set for temperature cycling for a total of five days after which time XRPD analysis was carried out."}, "[8]": {"assay": "Drying at 50° C./vacuum, re-analysis by XRPD", "assay_type": "physicochemical", "details": "screening sample from H2O"}, "[9]": {"assay": "Gravimetric vapour sorption (GVS)", "assay_type": "physicochemical", "procedure": "Sorption isotherms were obtained using a Hiden IGASorp moisture sorption analyser, controlled by CFRSorp software. The sample temperature was maintained at 25° C. by a Huber re-circulating water bath. The humidity was controlled by mixing streams of dry and wet nitrogen, with a total flow rate of 250 ml/min. The relative humidity (RH) was measured by a calibrated Vaisala RH probe (dynamic range of 0-95% RH), located near the sample. The weight change, (mass relaxation) of the sample as a function of % RH was constantly monitored by the microbalance (accuracy ±0.001 mg). Typically 10-20 mg of sample was placed in a tared mesh stainless steel basket under ambient conditions. The sample was loaded and unloaded at 40% RH and 25° C. (typical room conditions). A moisture sorption isotherm was performed as outlined below (2 scans giving 1 complete cycle). The standard isotherm was performed at 25° C. at 10% RH intervals over a 0-90% RH range.\nThe software uses a least squares minimisation procedure together with a model of the mass relaxation, to predict an asymptotic value. The measured mass relaxation value must be within 5% of that predicted by the software, before the next % RH value is selected. The minimum equilibration time was set to 1 hour and the maximum to 4 hours. The sample was recovered after completion of the isotherm and re-analysed by XRPD."}, "[10]": {"assay": "Thermodynamic aqueous solubility", "assay_type": "physicochemical", "details": "at pH 6.85"}}, "data": [{"smiles": "COc1cc(-c2cccc3cc([C@H](C)Nc4nc(N)ncc4C#N)n(-c4ccccc4)c(=O)c23)ccn1.O.O=S(=O)(O)O.O=S(=O)(O)O", "values": [{"measurement": "AUClast", "setting": "[1]; IV, 1 mg/kg", "result": 2534, "unit": "ng·h/mL"}, {"measurement": "Cl", "setting": "[1]; IV, 1 mg/kg", "result": 6.5, "unit": "mL/min/kg"}, {"measurement": "Cmax", "setting": "[1]; IV, 1 mg/kg", "result": 581, "unit": "ng/mL"}, {"measurement": "T1/2", "setting": "[1]; IV, 1 mg/kg", "result": 4.1, "unit": "h"}, {"measurement": "Vss", "setting": "[1]; IV, 1 mg/kg", "result": 1.6, "unit": "L/kg"}, {"measurement": "AUClast", "setting": "[1]; PO, 5 mg/kg", "result": 12790, "unit": "ng·h/mL"}, {"measurement": "Cmax", "setting": "[1]; PO, 5 mg/kg", "result": 2365, "unit": "ng/mL"}, {"measurement": "Foral", "setting": "[1]; PO, 5 mg/kg", "result": 100, "unit": "%"}, {"measurement": "T1/2", "setting": "[1]; PO, 5 mg/kg", "result": 4.0, "unit": "h"}, {"measurement": "Tmax", "setting": "[1]; PO, 5 mg/kg", "result": 2, "unit": "h"}, {"measurement": "AUClast", "setting": "[2]; IV, 2 mg/kg", "result": 2061, "unit": "ng·h/mL"}, {"measurement": "Cl", "setting": "[2]; IV, 2 mg/kg", "result": 17, "unit": "mL/min/kg"}, {"measurement": "Cmax", "setting": "[2]; IV, 2 mg/kg", "result": 799, "unit": "ng/mL"}, {"measurement": "T1/2", "setting": "[2]; IV, 2 mg/kg", "result": 2.3, "unit": "h"}, {"measurement": "Vss", "setting": "[2]; IV, 2 mg/kg", "result": 2.4, "unit": "L/kg"}, {"measurement": "AUClast", "setting": "[2]; PO, 10 mg/kg", "result": 5968, "unit": "ng·h/mL"}, {"measurement": "Cmax", "setting": "[2]; PO, 10 mg/kg", "result": 787, "unit": "ng/mL"}, {"measurement": "Foral", "setting": "[2]; PO, 10 mg/kg", "result": 58, "unit": "%"}, {"measurement": "T1/2", "setting": "[2]; PO, 10 mg/kg", "result": 3.3, "unit": "h"}, {"measurement": "Tmax", "setting": "[2]; PO, 10 mg/kg", "result": 1.3, "unit": "h"}, {"measurement": "AUClast", "setting": "[3]; IV, 5 mg/kg", "result": 1012, "unit": "ng·h/mL"}, {"measurement": "Cl", "setting": "[3]; IV, 5 mg/kg", "result": 82, "unit": "mL/min/kg"}, {"measurement": "Cmax", "setting": "[3]; IV, 5 mg/kg", "result": 1417, "unit": "ng/mL"}, {"measurement": "T1/2", "setting": "[3]; IV, 5 mg/kg", "result": 0.6, "unit": "h"}, {"measurement": "Vss", "setting": "[3]; IV, 5 mg/kg", "result": 2.3, "unit": "L/kg"}, {"measurement": "AUClast", "setting": "[3]; PO, 10 mg/kg", "result": 856, "unit": "ng·h/mL"}, {"measurement": "Cmax", "setting": "[3]; PO, 10 mg/kg", "result": 647, "unit": "ng/mL"}, {"measurement": "Foral", "setting": "[3]; PO, 10 mg/kg", "result": 45, "unit": "%"}, {"measurement": "T1/2", "setting": "[3]; PO, 10 mg/kg", "result": 1.7, "unit": "h"}, {"measurement": "Tmax", "setting": "[3]; PO, 10 mg/kg", "result": 15, "unit": "min"}, {"measurement": "AUClast", "setting": "[4]; IV, 1 mg/kg", "result": 4746, "unit": "ng·h/mL"}, {"measurement": "Cl", "setting": "[4]; IV, 1 mg/kg", "result": 2.5, "unit": "mL/min/kg"}, {"measurement": "Cmax", "setting": "[4]; IV, 1 mg/kg", "result": 424, "unit": "ng/mL"}, {"measurement": "T1/2", "setting": "[4]; IV, 1 mg/kg", "result": 14.6, "unit": "h"}, {"measurement": "Vss", "setting": "[4]; IV, 1 mg/kg", "result": 2.9, "unit": "L/kg"}, {"measurement": "AUClast", "setting": "[4]; PO, 5 mg/kg", "result": 17626, "unit": "ng·h/mL"}, {"measurement": "Cmax", "setting": "[4]; PO, 5 mg/kg", "result": 1830, "unit": "ng/mL"}, {"measurement": "Foral", "setting": "[4]; PO, 5 mg/kg", "result": 74, "unit": "%"}, {"measurement": "T1/2", "setting": "[4]; PO, 5 mg/kg", "result": 8.0, "unit": "h"}, {"measurement": "Tmax", "setting": "[4]; PO, 5 mg/kg", "result": 2.3, "unit": "h"}]}, {"smiles": "COc1cc(-c2cccc3cc([C@H](C)Nc4nc(N)ncc4C#N)n(-c4ccccc4)c(=O)c23)ccn1", "note": "[amorphous free base of Compound 1]", "values": [{"measurement": "Stability at 25° C./93% RH", "setting": "[5]; after 1 week, XRPD", "result": "No changes after 1 week"}, {"measurement": "Stability at 40° C./75% RH", "setting": "[6]; after 1 week, XRPD", "result": "No changes after 1 week"}, {"measurement": "solid form after storage at elevated humidity", "setting": "[6]; elevated humidity conditions, not specified in the sentence", "result": "No crystallisation"}, {"measurement": "XRPD form after maturation in acetic acid: water 1:1", "setting": "[7]; listed as amorphous material", "result": "Form 6"}]}, {"smiles": "COc1cc(-c2cccc3cc([C@H](C)Nc4nc(N)ncc4C#N)n(-c4ccccc4)c(=O)c23)ccn1", "note": "[Form 4 of the free base of Compound 1]", "values": [{"measurement": "XRPD after drying at 50° C./vacuum", "setting": "[8]", "result": "No changes"}, {"measurement": "XRPD after Storage at 40° C./75% RH", "setting": "[6]; screening sample from H2O, after drying", "result": "No changes"}, {"measurement": "GVS behaviour (hydration / desolvation)", "setting": "[9]; text statements, listed as Form 4", "result": "hydrates above 80% RH, but reversibly dehydrates back at 40% RH"}]}, {"smiles": "COc1cc(-c2cccc3cc([C@H](C)Nc4nc(N)ncc4C#N)n(-c4ccccc4)c(=O)c23)ccn1", "note": "[Form 1 of the free base of Compound 1]", "values": [{"measurement": "stability on storage at 25° C./93% RH", "setting": "[5]", "result": "converts to Form 3 of the free base of Compound 1"}, {"measurement": "stability on storage at 25° C./93% RH", "setting": "[5]; listed as Free base Form 1", "result": "conversion to Form 3"}, {"measurement": "Stability at 25° C./93% RH", "setting": "[5]; form", "result": "Conversion to Form 3 (FIG. 31)"}, {"measurement": "Thermodynamic aqueous solubility", "setting": "[10]", "result": 4, "unit": "µg/mL"}, {"measurement": "Stability at 40° C./75% RH", "setting": "[6]; 1 week, form", "result": "No changes in form after 1 week"}, {"measurement": "XRPD form after maturation in acetic acid: water 1:1", "setting": "[7]; listed as hydrate Form 1 of free base Compound 1", "result": "Form 6"}, {"measurement": "GVS: moisture on loading", "setting": "[9]", "result": 0.7, "unit": "% w/w"}, {"measurement": "GVS behaviour (hydration / desolvation)", "setting": "[9]; listed as Free base Form 1", "result": "hydrates to a higher hydrate above 80% RH"}, {"measurement": "GVS: uptake between 80-90% RH", "setting": "[9]; with hysteresis on desorption", "result": 4.0, "unit": "% w/w"}]}]}
